From US20130040933A1, “AZAINDOLES AS JANUS KINASE INHIBITORS” (priority 2010, published 2013)

What follows are molecules tested against T1, rhJAK3 (Homo sapiens, UniProt P52333) (assay: JAK Biochemical HTRF Assay (JAK3)). Details: recombinant purified GST-tagged catalytic domain, HTRF format, [ATP] 1.7 μM; read-out: rhJAK3 IC50.
T1 construct: recombinant purified GST-tagged catalytic domain for each enzyme; purchased Invitrogen PV3855
Method: JAK Biochemical HTRF Assay Protocol
The ability of compounds to inhibit the activity of JAK1, JAK2, JAK3, and TYK2 was measured using a recombinant purified GST-tagged catalytic domain for each enzyme (Invitrogen JAK1 #PV4774, JAK2 #PV4210, JAK3 #PV3855, TYK2 #PV4790) in an HTRF format biochemical assay. The reactions employed a common peptide substrate, LCB-EQEDEPEGDYFEWLW-NH2. The basic assay protocol is as follows: First, […] of diluted compounds in DMSO were dispensed into the wells of a dry 384-well Black plate (Greiner #781076) using a Labcyte Echo 555 acoustic dispenser. Subsequent reagent additions employed a Thermo Multidrop Combi nL. Next, 10 μL of 2× enzyme and 2× substrate in 1× assay buffer (Invitrogen kinase buffer #PV3189, 2 mM DTT, 0.05% BSA) were added to the wells and preincubated for 30 min at room temperature to allow compound binding to equilibrate. After equilibration, 10 μl, of 2×ATP in 1× assay buffer was added to initiate the kinase reaction and the plates were incubated at room temperature for 120 min. At the end of the incubation, 20 μL of 2× stop buffer containing streptavidin-Dylight (Thermo #21845) and Eu-tagged pY20 antibody (Perkin Elmer #AD0067) was added to quench the reaction. Plates were further incubated 60 min at room temperature with shaking and then read on a Perkin Elmer Envision (λex=337 nm, λem=665 and 615 nm, TRF delay time=20 μs). HTRF signal=10,000*665 nm reading/615 nm reading. After normalization to untreated controls, the percent inhibition of the HTRF signal at each compound concentration was calculated. The plot of percent inhibition vs. the log of compound concentration was fit with a 4-parameter dose response equation to calculate IC50 values.

T1 sequence (P52333 822-1111 limits assumed): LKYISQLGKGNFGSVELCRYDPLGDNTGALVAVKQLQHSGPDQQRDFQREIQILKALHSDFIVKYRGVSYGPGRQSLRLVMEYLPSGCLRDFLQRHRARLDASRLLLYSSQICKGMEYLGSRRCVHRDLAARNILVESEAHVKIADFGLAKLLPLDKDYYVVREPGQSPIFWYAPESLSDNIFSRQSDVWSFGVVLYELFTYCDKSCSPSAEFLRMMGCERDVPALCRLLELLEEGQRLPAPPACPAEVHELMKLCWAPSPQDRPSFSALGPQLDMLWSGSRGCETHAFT

IC50 [nM] | SMILES
100 to 1000 | Cc1cc(CNC(=O)[C@@H](C)Nc2cncc(-c3c[nH]c4ncc(Cl)cc34)n2)no1 [Example 2-6, N^2-[6-(5-chloro-1H-pyrrolo[2,3-b]-pyridin-3-yl)pyrazin-2-yl]-N-[(5 - methylisoxazol-3-yl)methyl]-D-alaninamide]
100 to 1000 | C[C@@H](Nc1cncc(-c2c[nH]c3ncc(Cl)cc23)n1)C(=O)NCCc1cn[nH]c1 [Example 2-7, N^2-[6-(5-chloro-1H-pyrrolo[2,3-b]-pyridin-3-yl)pyrazin-2-yl]-N-[2-(1H-pyrazol-4-yl)ethyl]-D-alaninamide]
10 to 100 | C[C@@H](Nc1cncc(-c2c[nH]c3ncc(Cl)cc23)n1)C(=O)NCCC1CC1 [Example 2-8, N^2-[6-(5-chloro-1H-pyrrolo[2,3-b]-pyridin-3-yl)pyrazin-2-yl]-N-(2-cyclopropylethyl)-D-alaninamide]
100 to 1000 | C[C@@H](Nc1cncc(-c2c[nH]c3ncc(Cl)cc23)n1)C(=O)NCc1cccs1 [Example 2-10, N^2-[6-(5-chloro-1H-pyrrolo[2,3-b]-pyridin-3-yl)pyrazin-2-yl]-N-(thiophen-2-ylmethyl)-D-alaninamide]
100 to 1000 | C[C@@H](Nc1cncc(-c2c[nH]c3ncc(Cl)cc23)n1)C(=O)NCC(=O)N(C)C [Example 2-11, N-[6-(5-chloro-1H-pyrrolo[2,3-b]-pyridin-3-yl)pyrazin-2-yl]-D-alanyl-N,N-dimethylglycinamide]
100 to 1000 | C[C@@H](Nc1cncc(-c2c[nH]c3ncc(Cl)cc23)n1)C(=O)N1CCC(F)(F)CC1 [Example 2-12, 6-(5-chloro-1H-pyrrolo[2,3-b]-pyridin-3-yl)-N-[(1R)-2-(4,4-difluoropiperidin-1-yl)-1-methyl-2-oxoethyl]pyrazin-2-amine]
100 to 1000 | C[C@@H](Nc1cncc(-c2c[nH]c3ncc(Cl)cc23)n1)C(=O)NC1CCCCNC1=O (stereo partly drawn) [Example 2-13, N^2-[6-(5-chloro-1H-pyrrolo[2,3-b]-pyridin-3-yl)pyrazin-2-yl]-N-(2-oxoazepan-3-yl)-D-alaninamide]
100 to 1000 | C[C@@H](Nc1cncc(-c2c[nH]c3ncc(Cl)cc23)n1)C(=O)NCc1ccc(N)cc1 [Example 2-14, N-(4-aminobenzyl)-N^2-[6-(5-chloro-1H-pyrrolo[2,3-b]pyridin-3-yl)pyrazin-2-yl]-D-alaninamide]
100 to 1000 | C[C@@H](Nc1cncc(-c2c[nH]c3ncc(Cl)cc23)n1)C(=O)NCCc1cccs1 [Example 2-15, N^2-[6-(5-chloro-1H-pyrrolo[2,3-b]-pyridin-3-yl)pyrazin-2-yl]-N-(2-thiophen-2-ylethyl)-D-alaninamide]
100 to 1000 | C[C@@H](Nc1cncc(-c2c[nH]c3ncc(Cl)cc23)n1)C(=O)NCC(=O)NC1CCCC1 [Example 2-16, N-[6-(5-chloro-1H-pyrrolo[2,3-b]-pyridin-3-yl)pyrazin-2-yl]-D-alanyl-N-cyclopentylglycinamide]
10 to 100 | C[C@@H](Nc1cncc(-c2c[nH]c3ncc(Cl)cc23)n1)C(=O)NC1CCC1 [Example 2-17, N^2-[6-(5-chloro-1H-pyrrolo[2,3-b]-pyridin-3-yl)pyrazin-2-yl]-N-cyclo-butyl-D-alaninamide]
100 to 1000 | C[C@@H](Nc1cncc(-c2c[nH]c3ncc(Cl)cc23)n1)C(=O)N[C@H](CO)Cc1ccc(O)cc1 [Example 2-18, N^2-[6-(5-chloro-1H-pyrrolo[2,3-b]-pyridin-3-yl)pyrazin-2-yl]-N-[(1S)-2-hydroxy-1-(4-hydroxybenzyl)-ethyl]-D-alaninamide]
100 to 1000 | C[C@@H](Nc1cncc(-c2c[nH]c3ncc(Cl)cc23)n1)C(=O)N1CCN(CC(F)(F)F)CC1 [Example 2-19, 6-(5-chloro-1H-pyrrolo[2,3-b]-pyridin-3-yl)-N-{(1R)-1-methyl-2-oxo-2-[4-(2,2,2-trifluoroethyl)-piperazin-1-yl]ethyl}pyrazin-2-amine]
100 to 1000 | C[C@@H](Nc1cncc(-c2c[nH]c3ncc(Cl)cc23)n1)C(=O)NCCCN1CCS(=O)(=O)CC1 [Example 2-20, N^2-[6-(5-chloro-1H-pyrrolo[2,3-b]-pyridin-3-yl)pyrazin-2-yl]-N-[3-(1,1-dioxidothiomorpholin-4-yl)-propyl]-D-alaninamide]
100 to 1000 | C[C@@H](Nc1cncc(-c2c[nH]c3ncc(Cl)cc23)n1)C(=O)NCc1ccc(C(F)(F)F)cc1 [Example 2-21, N^2-[6-(5-chloro-1H-pyrrolo[2,3-b]-pyridin-3-yl)pyrazin-2-yl]-N-[4-(trifluoromethyl)benzyl]-D-alaninamide]
10 to 100 | C[C@H](Nc1cncc(-c2c[nH]c3ncc(Cl)cc23)n1)C(=O)NCCC(F)(F)F [Example 2-22, N^2-[6-(5-chloro-1H-pyrrolo[2,3-b]-pyridin-3-yl)pyrazin-2-yl]-N-(3,3,3-trifluoropropyl)-L-alaninamide]
10 to 100 | CC(C)CNC(=O)[C@H](C)Nc1cncc(-c2c[nH]c3ncc(Cl)cc23)n1 [Example 2-23, N^2-[6-(5-chloro-1H-pyrrolo[2,3-b]-pyridin-3-yl)pyrazin-2-yl]-N-(2-methylpropyl)-L-alaninamide]
100 to 1000 | C[C@H](Nc1cncc(-c2c[nH]c3ncc(Cl)cc23)n1)C(=O)NCC(C)(C)C [Example 2-24, N^2-[6-(5-chloro-1H-pyrrolo[2,3-b]-pyridin-3-yl)pyrazin-2-yl]-N-(2,2-dimethylpropyl)-L-alaninamide]
≤ 1 | O=C(NCC(F)(F)F)C1(Nc2cncc(-c3c[nH]c4ncc(Cl)cc34)n2)CCCC1 [Example 2-25, 1-{[6-(5-chloro-1H-pyrrolo[2,3-b]pyridin-3-yl)pyrazin-2-yl]amino}-N-(2,2,2-trifluoroethyl)cyclopentanecarboxamide]
100 to 1000 | O=C(NCCC(F)(F)F)C1(Nc2cncc(-c3c[nH]c4ncc(Cl)cc34)n2)CCCC1 [Example 2-26, 1-{[6-(5-chloro-1H-pyrrolo[2,3-b]pyridin-3-yl)pyrazin-2-yl]amino}-N-(3,3,3-trifluoropropyl)cyclopentanecarboxamide]
1 to 10 | O=C(NCC(F)(F)F)[C@@H]1[C@@H](O)CN1c1cncc(-c2c[nH]c3ncc(Cl)cc23)n1 [Example 3, (2S,3S)-1-[6-(5-Chloro-1H-pyrrolo[2,3-b]pyridin-3-yl)pyrazin-2-yl]-3-hydroxy-N-(2,2,2-trifluoroethyl)azetidine-2-carboxamide]
1 to 10 | CS(=O)(=O)N1CCN(c2cncc(-c3c[nH]c4ncc(Cl)cc34)n2)[C@@H](C(=O)NCC(F)(F)F)C1 [Example 4, (2R)-1-[6-(5-Chloro-1H-pyrrolo[2,3-b]pyridin-3-yl)pyrazin-2-yl]-4-methylsulfonyl-N-(2,2,2-trifluoroethyl)piperazine-2-carboxamide]
1 to 10 | CC(=O)N1CCN(c2cncc(-c3c[nH]c4ncc(Cl)cc34)n2)[C@@H](C(=O)NCC(F)(F)F)C1 [Example 4-2, (2R)-4-acetyl-1-[6-(5-chloro-1H-pyrrolo-[2,3-b]pyridin-3-yl)pyrazin-2-yl]-N-(2,2,2-trifluoroethyl)piperazine-2-carboxamide]
10 to 100 | CC(C)(C)C(=O)N1CCN(c2cncc(-c3c[nH]c4ncc(Cl)cc34)n2)[C@@H](C(=O)NCC(F)(F)F)C1 [Example 4-3, (2R)-1-[6-(5-chloro-1H-pyrrolo[2,3-b]-pyridin-3-yl)pyrazin-2-yl]-4-(2,2-dimethylpropanoyl)-N-(2,2,2-trifluoro-ethyl)piperazine-2-carboxamide]
10 to 100 | O=C(Cn1ccc2ncc(-c3c[nH]c4ncc(Cl)cc34)nc21)NCC(F)(F)F [Example 5, 2-[3-(5-Chloro-1H-pyrrolo[2,3-b]pyridin-3-yl)-5H-pyrrolo[2,3-b]pyrazin-5-yl]-N-(2,2,2-trifluoroethyl)acetamide]
1 to 10 | O=C(NCC(F)(F)F)C1(Oc2cncc(-c3c[nH]c4ncc(Cl)cc34)n2)CC1 [Example 6, 1-{[6-(5-Chloro-1H-pyrrolo[2,3-b]pyridin-3-yl)pyrazin-2-yl]oxy}-N-(2,2,2-trifluoroethyl)-cyclopropanecarboxamide]
1 to 10 | NC(=O)C1(Oc2cncc(-c3c[nH]c4ncc(Cl)cc34)n2)CC1 [Example 6-1, 1-{[6-(5-chloro-1H-pyrrolo[2,3-b]pyridin-3-yl)pyrazin-2-yl]oxy}cyclopropane-carboxamide]
1 to 10 | CN(C)C(=O)C1(Oc2cncc(-c3c[nH]c4ncc(Cl)cc34)n2)CC1 [Example 6-2, 1-{[6-(5-chloro-1H-pyrrolo[2,3-b]pyridin-3-yl)pyrazin-2-yl]oxy}-N,N-dimethyl-cyclopropanecarboxamide]

SMILES | IC50 [nM]
CC(Cc1cccnc1)NC(=O)[C@@H](C)Nc1cncc(-c2c[nH]c3ncc(Cl)cc23)n1 (stereo partly drawn) [Example 2-9, N^2-[6-(5-chloro-1H-pyrrolo[2,3-b]-pyridin-3-yl)pyrazin-2-yl]-N-(l - methyl-2-pyridin-3-ylethyl)-D-alaninamide] | 100 to 1000
